# Measured values taken from patent publication EP0425828A2, “Facteur thymique sérique for prevention and remedy of disorders of decrease in the number of blood corpuscles” (MITSUI TOATSU CHEMICALS, Inc., priority 1989, dated 1991).
# Square brackets hold non-standard residues; d marks the D form. Peptide text beside a SMILES is read from it. pGlu = O=C1CC[C@@H](C(=O)O)N1
# What was measured:
# ddy strain male mice = assay: Toxicity test in mice, repeated subcutaneous administration; format: in vivo; conditions: for toxicity: five ddy strain male mice of 5 weeks old
# Description: (§1) Thus, the medicament of the present invention is a safe medicament of extremely low toxicity and can be administered for a long period of time.
# Wistar rats = assay: Toxicity test in rats, repeated subcutaneous administration; format: in vivo; conditions: 30 mg/kg s.c. for consecutive 21 days
# Description: as §1
# leucocytes (WBC) = assay: Effect on mice to which cyclophosphamide (CPA) was intraperitoneally administered: blood inspection, WBC; format: in vivo, male C3H/HeN mice; conditions: for WBC, mean value ± S.D.: 400 mg/kg of CPA alone i.p. once on day zero
# Protocol: (§2) Several groups each consisting of 10 male C3H/HeN mice of 8 weeks old were prepared. For the first group, 0.2 ml of physiological saline was subcutaneously administered for consecutive 12 days from 2 days before the examination to the 9th day of the examination. For the second group, FTS substance was subcutaneously administered once a day in an amount of 100 iig/0.2 ml for consecutive 12 days. For the third group, CPA was intraperitoneally administered in an amount of 400 mg/kg once on the zero day of the examination. For the fourth group, an administration schedule combining the second group with the third group was applied to the mice. For the fifth group, CPA was intraperitoneally administered in an amount 200 mg/kg once on the zero day of the examination. For the sixth group, an administration schedule combining the second group with the fifth group was applied to the mice. For the seventh group, CPA was intraperitoneally administered in an amount of 100 mg/kg once on the zero day of the examination. For the eighth group, an administration schedule combining the second group with the seventh group to the mice. During the examination, blood was collected by cutting axillary artery on the days of examination (0, 3rd, 5th, 7th, 10th and 14th days) and subjected to a blood inspection to measure the number of leucocytes (WBC), the number of erythrocytes (RBC), the number of reticulocytes (RET), the number of platelets (PLT), the number of hemoglobin (HGB), hematocrit value (HCT), a mean corpuscular volume, a mean corpuscular hemoglobin and a mean corpuscular hemoglobin concentration.
# reticulocytes (RET) = assay: Effect on mice to which CPA was intraperitoneally administered: blood inspection, RET; format: in vivo, male C3H/HeN mice
# Protocol: as §2, with “During the examination, blood was collected by cutting axillary artery on the days of examination (0, 3rd, 5th, 7th, 10th and 14th days) and subjected to a blood inspection to measure the number of leucocytes (WBC), the number of erythrocytes (RBC), the number of reticulocytes (RET), the number of platelets (PLT), the number of hemoglobin (HGB), hematocrit value (HCT), a mean corpuscular volume, a mean corpuscular hemoglobin and a mean corpuscular hemoglobin concentration.” left out
# platelets (PLT) = assay: Effect on mice to which CPA was intraperitoneally administered: blood inspection, PLT; format: in vivo, male C3H/HeN mice
# Protocol: as §2
# [1] = Effect on mice to which CPA was intraperitoneally administered: body weight; format: in vivo, male C3H/HeN mice; conditions: CPA alone
# Protocol: as §2, with “During the examination, blood was collected by cutting axillary artery on the days of examination (0, 3rd, 5th, 7th, 10th and 14th days) and subjected to a blood inspection to measure the number of leucocytes (WBC), the number of erythrocytes (RBC), the number of reticulocytes (RET), the number of platelets (PLT), the number of hemoglobin (HGB), hematocrit value (HCT), a mean corpuscular volume, a mean corpuscular hemoglobin and a mean corpuscular hemoglobin concentration.” left out
# [2] = tested on: leucocytes in peripheral blood; assay: Effect on mice to which MMC was intraperitoneally administered: leucocyte count; format: in vivo, female ICR/JCL mice; conditions: MMC alone, 20 µg/0.1 ml i.p. once a day for 10 days
# Protocol: Four groups each consisting of 6 female ICR/JCL mice of 5 weeks old were treated as follows: For the first group, 0.1 ml of physiological saline was intraperitoneally administered to the mice for consecutive 12 days. For the second group, FTS substance was subcutaneously administered once a day in an amount of 100 u.g for consecutive 12 days. For the third group, MMC was intraperitoneally administered once a day in an amount of 20 µg/0.1 ml for 10 days from the zero day to the 9th day of the experiment. For the fourth group, FTS substance was subcutaneously administered to the mice once a day in an amount of 100 µg for consecutive 12 days from 2 days before the administration of MMC, and for 10 days from the […] after the administration of FTS substance MMC was intraperitoneally administered once a day in an amount of 20 u.g/0.1 ml. After the administration of the anti-cancer agent, blood was collected on alternate days from oculus vein and the numbr of leucocytes in the blood was counted.
# [3] = 7th day, 400mg/kg of CPA alone i.p. once on day zero
smiles,measurement,setting,value
"C[C@H](NC(=O)[C@@H]1CCC(=O)N1)C(=O)N[C@@H](CCCCN)C(=O)N[C@@H](CO)C(=O)N[C@@H](CCC(N)=O)C(=O)NCC(=O)NCC(=O)N[C@@H](CO)C(=O)N[C@@H](CC(N)=O)C(=O)O [effective ingredient, pGlu-Ala-Lys-Ser-Gln-Gly-Gly-Ser-Asn] ([pGlu]AKSQGGSN-OH)",toxicity,ddy strain male mice; 50 mg/kg s.c. for consecutive 14 days,No toxicity was observed
same,abnormal symptoms by external check,"ddy strain male mice; 100 mg/kg s.c. every day for consecutive 14 days, mice",no abnormal symptom was found
same,toxicity,ddy strain male mice; 100mg/kg s.c. for consecutive 14 days,No toxicity was observed
same,"abnormal symptoms in external behavior observation, biochemical diagnosis of sera and pathological anatomy",Wistar rats; rats,no abnormal symptom was found
same,toxicity,Wistar rats; ten Wistar rats of 5 weeks old,No toxicity was observed
"O=P1(N(CCCl)CCCl)NCCCO1 (stereo not drawn) [CPA, cyclophosphamide]","WBC, mean value ± S.D.",leucocytes (WBC); 3rd day,11.6±2.1 x 10^2/mm^3
same,"WBC, mean value ± S.D.",leucocytes (WBC); 5th day,4.2±1.0 x 10^2/mm^3
same,WBC change,"leucocytes (WBC); CPA alone 400 mg/kg, 200 mg/kg or 100 mg/kg, 3rd, 5th and 7th day, 5th day the minimum",considerably decreased
same,RET,reticulocytes (RET); [3],27.2±5.0 0/00
same,RET change,"reticulocytes (RET); CPA administered, 5th day the minimum",RET was decreased
same,PLT change,"platelets (PLT); 400 mg/kg and 200 mg/kg of CPA, 7th day the minimum, recovered to the normal range on the 10th day",PLT was decreased
same,PLT,"platelets (PLT); 5th day, 400 mg/kg of CPA alone i.p. once on day zero",357±82 x 10^3/mm^3
same,PLT,platelets (PLT); [3],214±73 x 10^3/mm^3
same,body weight change,[1],decrease in body weight
"CO[C@@]12[C@H](COC(N)=O)C3=C(C(=O)C(C)=C(N)C3=O)N1C[C@@H]1N[C@@H]12 [MMC, mitomycine C]","number of leucocytes, lowest level as % of the maximum normal range",[2],about 40%
